Experimental data taken from ChEMBL document CHEMBL6114969, “Ultra-short lipopeptides containing d-amino acid exhibiting excellent stability and antibacterial activity against gram-positive bacteria” (Eur J Med Chem, 2025).
≈ marks a conversion by molar mass, not a printed value. Calls of active or inactive are those of the source. The rule behind the calls is not given here.

Experiments:
[1] = system: Staphylococcus aureus; experiment: Antibacterial activity against Staphylococcus aureus ATCC 29213 incubated for 18 to 24 hrs by broth microdilution method; format: functional; conditions: time 18-24 hrs
[2] = system: Staphylococcus epidermidis; experiment: Antibacterial activity against Staphylococcus epidermidis ATCC 12228 incubated for 18 to 24 hrs by broth microdilution method; format: functional; conditions: time 18-24 hrs
[3] = system: Staphylococcus aureus; experiment: Antibacterial activity against methicillin-resistant Staphylococcus aureus ATCC 33591 incubated for 18 to 24 hrs in presence of 1 mg/ml of trypsin by broth microdilution method; format: functional; conditions: time 18-24 hrs
[4] = system: Staphylococcus aureus; experiment: Antibacterial activity against methicillin-resistant Staphylococcus aureus ATCC 33591 incubated for 18 to 24 hrs in presence of 0.5 mg/ml of chymotrypsin by broth microdilution method; format: functional; conditions: time 18-24 hrs
[5] = system: Staphylococcus aureus; experiment: Antibacterial activity against methicillin-resistant Staphylococcus aureus ATCC 33591 assessed as fold change in MIC incubated for 18 to 24 hrs in presence of MgCl2 by broth microdilution method; format: functional; conditions: time 18-24 hrs
[6] = system: Staphylococcus aureus; experiment: Antibacterial activity against methicillin-resistant Staphylococcus aureus ATCC 33591 assessed as fold change in MIC incubated for 18 to 24 hrs in presence of NaCl by broth microdilution method; format: functional; conditions: time 18-24 hrs
[7] = Stability in mouse serum assessed as half life measured upto 96 hrs by RP-HPLC analysis; format: ADME, cell-free
[8] = system: Staphylococcus aureus; experiment: Synergistic bactericidal activity against persistent methicillin-resistant Staphylococcus aureus ATCC 33591 incubated for 18 to 24 hrs in presence of ciprofloxacin by time-kill assay; format: functional, organism-based; conditions: time 18-24 hrs
[9] = system: Staphylococcus aureus; experiment: Synergistic bactericidal activity against persistent methicillin-resistant Staphylococcus aureus ATCC 33591 incubated for 18 to 24 hrs in presence of polymyxin B by time-kill assay; format: functional, organism-based; conditions: time 18-24 hrs
[10] = system: Staphylococcus aureus; experiment: Antibacterial activity against drug-resistant Staphylococcus aureus ATCC 25923 incubated for 18 to 24 hrs; format: functional; conditions: time 18-24 hrs
[11] = system: Staphylococcus aureus; experiment: Synergistic antibacterial activity against methicillin-resistant Staphylococcus aureus ATCC 33591 assessed as fractional inhibitory concentration index upto 2 times MIC incubated for 18 to 24 hrs in presence of polymyxin B by checkerboard assay; format: functional; conditions: time 18-24 hrs
[12] = system: Staphylococcus aureus; experiment: Anti-biofilm activity against methicillin-resistant Staphylococcus aureus ATCC 33591 at 8 uM incubated for 24 hrs by MTT assay; format: functional, organism-based
[13] = system: Staphylococcus aureus; experiment: Elimination of biofilm generation of methicillin-resistant Staphylococcus aureus ATCC 33591 incubated for 24 hrs by MTT assay; format: functional, organism-based
[14] = system: Staphylococcus aureus; experiment: Bactericidal activity against methicillin-resistant Staphylococcus aureus ATCC 33591 at 4 times MIC incubated for 24 hrs in presence of 8 ug/ml LTA by absorbance based assay; format: functional, organism-based
[15] = system: Staphylococcus aureus; experiment: Induction of morphological changes in methicillin-resistant Staphylococcus aureus ATCC 33591 assessed as content leakage at 4 times MIC incubated for 2 hrs by SEM analysis; format: functional, organism-based
[16] = system: Staphylococcus aureus; experiment: Induction of cell membrane damage in methicillin-resistant Staphylococcus aureus ATCC 33591 assessed as nucleic acid leakage at 2 to 8 times MIC measured upto 360 mins by absorbance based assay; format: functional, organism-based
[17] = system: Staphylococcus aureus; experiment: Destruction of cell membrane in methicillin-resistant Staphylococcus aureus ATCC 33591 measured upto 360 mins by absorbance based assay; format: functional, organism-based
[18] = system: Staphylococcus aureus; experiment: Destruction of cell membrane in methicillin-resistant Staphylococcus aureus ATCC 33591 at 2 to 8 times MIC by absorbance based assay; format: functional, organism-based; conditions: time <= 360.0 min
[19] = Toxicity in Balb/c mouse assessed as survival rate at 40 mg/kg, ip measured after 7 days; format: organism-based; conditions: in vivo, time 7 day
[20] = Toxicity in Balb/c mouse assessed as change in lung co-efficient at 20 to 80 mg/kg, ip measured after 7 days; format: organism-based; conditions: in vivo, 168 h, dose 20-80 mg/kg, time 7 day
[21] = Toxicity in Balb/c mouse assessed as change in kidney co-efficient at 20 to 80 mg/kg, ip measured after 7 days; format: organism-based; conditions: in vivo, 168 h, dose 20-80 mg/kg, time 7 day
[22] = Toxicity in Balb/c mouse assessed as spleen atrophy at 80 mg/kg, ip measured after 7 days; format: organism-based; conditions: in vivo, 168 h, time 7 day
[23] = Toxicity in Balb/c mouse assessed as kidney atrophy at 80 mg/kg, ip measured after 7 days; format: organism-based; conditions: in vivo, 168 h, time 7 day
[24] = Toxicity in Balb/c mouse assessed as kidney pigmentation at 80 mg/kg, ip measured after 7 days; format: organism-based; conditions: in vivo, 168 h, time 7 day
[25] = Toxicity in Balb/c mouse assessed as change in serum AST level at 20 to 80 mg/kg, ip measured after 7 days; format: organism-based; conditions: in vivo, 168 h, dose 20-80 mg/kg, time 7 day
[26] = system: Staphylococcus aureus; experiment: Antibacterial activity against methicillin-resistant Staphylococcus aureus ATCC 33591 infected in Balb/c mouse model of acute systemic infection assessed as reduction in cell swelling in heart at 10 mg/kg, ip measured after 5 days by H and E staining based analysis; format: functional, organism-based; conditions: time 5.0 day
[27] = system: Staphylococcus aureus; experiment: Antibacterial activity against methicillin-resistant Staphylococcus aureus ATCC 33591 infected in Balb/c mouse model of acute systemic infection assessed as reduction in bleeding in heart at 10 mg/kg, ip measured after 5 days by H and E staining based analysis; format: functional, organism-based; conditions: time 5.0 day
[28] = system: Staphylococcus aureus; experiment: Antibacterial activity against methicillin-resistant Staphylococcus aureus ATCC 33591 infected in Balb/c mouse model of acute systemic infection assessed as reduction in hypoplasia of white pulp in spleen at 10 mg/kg, ip measured after 5 days by H and E staining based analysis; format: functional, organism-based; conditions: time 5.0 day
[29] = system: Staphylococcus aureus; experiment: Antibacterial activity against methicillin-resistant Staphylococcus aureus ATCC 33591 infected in Balb/c mouse model of acute systemic infection assessed as tissue damage repair at 10 mg/kg, ip measured after 5 days in presence of polymyxin B by H and E staining based analysis; format: functional, organism-based; conditions: time 5.0 day
[30] = system: Staphylococcus aureus; experiment: (§1) Antibacterial activity against methicillin-resistant Staphylococcus aureus ATCC 33591 infected in Balb/c mouse model of pneumonia infection assessed as reduction in inflammatory cell infiltration in lung at 10 mg/kg, ip administered thrice at 4, 8 and 12 hrs post-infection measured after 24 hrs post-infection by H and E staining based analysis; format: functional, organism-based; conditions: time 20.0 hrs
[31] = system: Staphylococcus aureus; experiment: as §1, with “IL-1beta activity” for “inflammatory cell infiltration”, “IHC” for “H and E staining based”; format: functional, organism-based; conditions: time 20.0 hrs
[32] = system: Staphylococcus aureus; experiment: Antibacterial activity against methicillin-resistant Staphylococcus aureus ATCC 33591 infected in Balb/c mouse model of skin wound infection assessed as reduction in bacterial load in skin at 10 mg/kg, ip administered thrice at 1, 24 and 48 hrs post-infection measured after 72 hrs post-infection in presence of polymyxin B; format: functional, organism-based; conditions: time 71.0 hrs
[33] = system: Staphylococcus aureus; experiment: (§2) Antibacterial activity against methicillin-resistant Staphylococcus aureus ATCC 33591 infected in Balb/c mouse model of skin wound infection assessed as wound heal at 10 mg/kg, ip administered thrice at 1, 24 and 48 hrs post-infection measured after 14 days relative to control; format: functional; conditions: time 14 day
[34] = system: Staphylococcus aureus; experiment: as §2, with “days in presence of polymyxin B” for “days”; format: functional; conditions: time 14 day
[35] = system: Staphylococcus aureus; experiment: (§3) Antibacterial activity against methicillin-resistant Staphylococcus aureus ATCC 33591 infected in Balb/c mouse model of skin wound infection assessed as reduction in IL-1beta activity in skin at 10 mg/kg, ip administered thrice at 1, 24 and 48 hrs post-infection measured after 14 days in presence of polymyxin B by IHC analysis; format: functional, organism-based; conditions: time 14.0 day
[36] = system: Staphylococcus aureus; experiment: as §3, with “in keratosis” for “in IL-1beta activity”, “in wound surface” for “in skin”, “days” for “days in presence of polymyxin B”; format: functional, organism-based; conditions: time 14.0 day

`CCCCCCCCCCCC(=O)N[C@H](CCCNC(=N)N)C(=O)N[C@H](CCCNC(=N)N)C(=O)N[C@H](Cc1c[nH]c2ccccc12)C(=O)O` showed an MIC [1] of 4 µM (≈ 2.8 µg/mL), an MIC [2] of 2 µM (≈ 1.4 µg/mL) and an MIC [3] of 4 µM. For the same compound, the MIC [4] was 4 µM, the “fold change (FC)” value [5] was under 3 and the “fold change (FC)” value [6] was under 3. The half-life [7] was over 48 h, the Activity [8] was “Dose-dependent-effect” and the Activity [9] was “Dose-dependent-effect”. The MIC [10] was 8 µM (≈ 5.59 µg/mL), the “fractional inhibitory concentration index (FICI)” value [11] was 0.125 and the Activity [12] was “Active; Compound Activity Was Slightly Weaker Than Vancomycin But Significantly Better Than Polymyxin B, Imipenem, Ciprofloxacin And Gentamicin”. For the same compound, the Activity [13] was “Not active; Compound Activity Was Not Significant”, the Activity [14] was “inactive” and the Activity [15] was “Active”. For the same compound, the Activity [16] was “Active”, the Activity [17] was “Dose-dependent-effect” and the Activity [18] was “Time-dependent-effect”. For the same compound, the survival at 168 h [19] was 0%, the Activity [20] was “Non-toxic” and the Activity [21] was “Toxic”. For the same compound, the Activity [22] was “Toxic”, the Activity [23] was “Toxic” and the Activity [24] was “Toxic”. For the same compound, the Activity [25] was “Non-toxic”, the Activity [26] was “Active” and the Activity [27] was “Active”. For the same compound, the Activity [28] was “Active”, the Activity [29] was “Active; Compound In Combination Exerted Better Activity Than Polymyxin B Treatment Alone” and the Activity [30] was “Active”. The Activity [31] was “Active”, the Activity [32] was “Active” and the Activity [33] was 100%. The Activity [34] was 100%, the Activity [35] was “Active” and the Activity [36] was “Active”.
